Reference: patent US4746672A, “Oxides of 1,2,5-thiadiazoles, their use in pharmaceutical compositions” (ICI Americas Inc., priority 1982, dated 1988)
Where a name gives a salt, the structure may show the parent alone.

Target: T1, histamine H-2 receptor (Oryctolagus cuniculus, UniProt G1TWL8)
T1 construct: The mixture of glands and cells is collected by centrifugation; from tissue; host or cells: dispersed gastric glands and cells (parietal cells) from gastric mucosa of New Zealand white rabbit
Assay: aminopyrine test: inhibition of histamine-induced uptake of aminopyrine into the acid space of parietal cells
Type: cell-based, New Zealand white rabbit
Conditions: rabbit gastric mucosa glands/cells; uptake stimulated by histamine 10^-5 M and ICI 63197 5×10^-7 M; read-out: concentration giving 50% inhibition of uptake of aminopyrine
Protocol: The aminopyrine test is carried out as follows:
Gastric mucosa from the New Zealand white rabbit is removed from the underlying muscle and washed in Buffer 1 which contains per liter: NaCl (8.007 g.), KCl (0.201 g.), Na2 HPO4 (0.113 g.), KH2 PO4 (0.204 g.), CaCl2.2H2 O (0.132 g.) MgCl2 (0.101 g.) and glucose (1 g.), adjusted to pH 7.4 with NaOH. The tissue is finely chopped, suspended in Buffer 1 and washed three times with Buffer 1. The tissue is then suspended in a dispersion medium of collagenase (Sigma Chemical Co., Type V; 100 mg.) and bovine serum albumin (Miles Laboratories Ltd., Fraction V; 100 mg.) in Buffer 1 (100 ml.) at 50 ml. per 10 g. net weight of tissue and incubated at 30° C. and pH 7.4 maintained by continuous monitoring, with stirring under an oxygen atmosphere. After 30 minutes the tissue is allowed to settle and the supernatant liquid is removed. Fresh dispersion medium (50 ml. per 10 g. wet weight of tissue) is added and incubation is continued with the tissue being largely dispersed into glands and whole cells after 40-60 minutes. Any remaining large pieces of tissue are removed by filtration through nylon mesh. […] The C^14 aminopyrine retained by the tissue is measured on a scintillation counter and the degree of inhibition of uptake by the test compound is calculated by reference to a control sample. […]

T1 sequence (G1TWL8 1-367): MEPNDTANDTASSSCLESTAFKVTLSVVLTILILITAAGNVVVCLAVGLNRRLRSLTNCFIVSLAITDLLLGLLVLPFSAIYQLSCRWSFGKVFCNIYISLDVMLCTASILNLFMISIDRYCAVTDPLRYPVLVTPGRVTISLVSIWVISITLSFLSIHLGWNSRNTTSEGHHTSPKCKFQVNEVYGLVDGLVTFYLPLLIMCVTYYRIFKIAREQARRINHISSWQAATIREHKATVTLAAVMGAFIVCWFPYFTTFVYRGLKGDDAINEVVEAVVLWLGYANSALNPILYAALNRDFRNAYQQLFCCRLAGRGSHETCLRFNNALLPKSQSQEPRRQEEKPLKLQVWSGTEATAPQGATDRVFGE

Question: For `NC(=NCC(F)(F)F)Nc1nc(CSCCNc2n[s+]([O-])nc2N)cs1` (stereo not shown) [Example 1, 3-amino-4-[2-(2-[2,2,2-trifluoroethyl]guanidino)thiazol-4-ylmethylthio]ethylamino-1,2,5-thiadiazole 1-oxide maleate], which IC50 is on record?
Answer: < 3 µM
